Reference: patent US12350310B2, “Treatment and prevention of nephrotoxin-induced kidney injuries” (Farsight Medical Technology (Shanghai) Co., Ltd., priority 2019, dated 2025)
“And” between values parts separate entries of the source, which are not always exact repeats. Equal values may be shown once. “Also recorded” adds a separate entry of the source.

Assays:
[1] = tested on: rhabdomyolysis-induced acute kidney injury; assay: Rhabdomyolysis-induced (glycerine) acute kidney injury model in rats (Example 3); assay type: in vivo, male SD rats; settings: Compound I 3 mg/kg IP at 6 h and 1 h prior to glycerine, kidneys after 48 h, Group 3, Mean (SEM)
Method: The efficacy of Compound I in protection against rhabdomyolysis-induced acute kidney injury was tested in a model study in male SD rats. The acute kidney injury model was induced in the rats by bilateral intra-muscular injection of 50% Glycerine (at a dose volume of 10 ml/kg body weight, divided into two sites of injection at each limb). Glycerine induces physiological conditions which are closely associated with rhabdomyolysis, such as myoglobinuria, tubular necrosis, and renal vasoconstriction.
Three groups formed part of the study: sham, vehicle, and compound I. Except for the sham group, where no glycerine was injected, animals were dosed twice intraperitoneally with either Compound I or Vehicle: at 6 h and at 1 h prior to receiving the glycerine injection (see Table 3).
After 48 h, the animals were euthanized, and their right and left kidneys were fixed in formalin 10%. Each kidney was cut longitudinally into 2 halves, both placed in a cassette and processed in paraffin. Sections were cut and stained using Hematoxylin and Eosin (H&E). The kidney sections were examined and histopathological analysis and scoring was performed for tubular, endothelial, glomerular and tubulointerstitial damage based on scoring systems in the art (e.g. Khalid U. et al, Journal of Histology & Histopathology. Volume 3, Article 1. 2016). Tubular epithelial necrosis scoring was based on the total number of tubules in the outer stripe of the outer medulla (OSOM). Tubulointerstitial damage was scored as a total percentage of the entire tissue observed in the section. The scores of each parameter were also added to provide a total histopathological score.
Table 4 summarizes the histopathology scoring results for the test groups sham (Group 1), vehicle (Group 2) and compound I (Group 3). All data are presented as Mean±SEM. All treatment groups were compared to the sham group (Group 1) or to the vehicle group (Group 2) using Student's T-Test. A p value <0.05 is considered to represent a significant difference.

[2] = tested on: gentamicin-induced acute kidney injury; assay: Gentamicin-induced acute kidney injury model in rats, pathology and dose response (Example 2); assay type: in vivo; settings: Compound I 0.5, 3, 9 mg/kg i.p.
Method: A further study in rats was carried out essentially in analogy to the general study protocol described in Example 1, to further assess the efficacy and impact of Compound I against gentamicin-induced acute kidney injury and to test the dose response. The tissue pathology, as well as the additional biomarkers were assessed.
Five groups formed part of the study (See Table 2): control (Group 1), vehicle (Group 2), and animals receiving Compound I at doses of 0.5 mg/kg (Group 3), 3 mg/kg (Group 4) and 9 mg/kg (Group 5). Except for the control Group 1, gentamicin (100 mg/kg) was given by intraperitoneal injection for 10 consecutive days, once daily from Day 1 to Day 10.
The vehicle, or Compound I formulated in the vehicle was administered intraperitoneally (i.p.) for 10 days, from Day 1 to Day 10 of the study (total 11 times). On initiation of the experiment (Day 1), Compound I at the specified dose amounts was administered by i.p. injection 6 h, and 1 h before the gentamicin injection to the animals in groups 3, 4 and 5. Thereafter, on Day 2 to Day 10, Compound I was administered once daily at the specified dose to said study groups, approximately 1 h prior to the gentamicin injection. On day 10, the rats were euthanized. Blood samples were collected, and the kidney tissues (both left and right kidneys) of the rats were also taken for H&E staining. Histopathological evaluation was performed on the kidney sections using standard methods and scoring criteria in the art to assess the level of tissue damage caused by the gentamicin-induced acute kidney injury. The kidney sections were assessed and scored for: necrosis of renal tubules, tubular dilation, loss of tubular brush border, cast formation in the renal tubules, and interstitial inflammatory cell (neutrophil) infiltration. The scoring was performed on a scale of 0 to 4 (0=0% i.e. no observation, 1≤5%, 2=5-25%, 3=25-50%, 4≥50% i.e. extensive, severe, or widely visible damage) on both left and right kidney tissues. The scoring was accumulated to provide a total combined score.
Kidney function analysis based on blood urea nitrogen (BUN) and creatinine in the serum was performed. Assay in plasma for biomarkers NGAL (neutrophil gelatinase-associated lipocalin) and Kim-1 (kidney injury molecule-1) was also determined.

[3] = tested on: gentamicin-induced acute kidney injury; assay: Gentamicin-induced acute kidney injury model in rats (Example 1); assay type: in vivo, male Wistar rats; settings: Compound I 3 mg/kg i.p. before gentamicin 100 mg/kg i.p. daily
Method: Efficacy of the compound of Compound I against gentamicin-induced acute kidney injury was tested in a model study with male Wistar rats (180-220 g) randomly grouped based on body weights. Three groups formed part of the study: control, vehicle, and compound I (see Table I). Except for the control group, gentamicin (100 mg/kg) was given by intraperitoneal injection for 10 consecutive days, once daily from Day 1 to Day 10. The first day of gentamicin injection was designated as Day 1 of the study.
The vehicle, or the Compound I formulated in the vehicle was administered intraperitoneally (i.p.) for 10 days, from Day 1 to Day 10 of the study (total 11 times). On initiation of the experiment (Day 1), Compound I (3 mg/kg) was administered by i.p. injection 6 h, and 1 h before the gentamicin injection. Thereafter, on Day 2 to Day 10, Compound I was administered once daily (3 mg/kg) 1 h prior to the gentamicin injection. Body weights of the rats were recorded daily. On the day 10, the animals were euthanized and blood sample was collected via cardiac punction. Serum was collected and stored at −80° C. for kidney function analysis of blood urea nitrogen (BUN) and creatinine.

[4] = especially G4 and G5, versus G2 vehicle
[5] = gentamicin 100 mg/kg daily, Day 10, versus G2 vehicle
[6] = gentamicin 100 mg/kg daily, Day 10, versus Group 2 vehicle

C/C=C/C[C@@H](C)[C@@H](O)[C@H]1C(=O)N[C@@H](CC)C(=O)N(C)[C@H](OCCN(C)C)C(=O)N(C)[C@@H](CC(C)C)C(=O)N[C@@H](C(C)C)C(=O)N(C)[C@@H](CC(C)C)C(=O)N[C@@H](C)C(=O)N[C@H](C)C(=O)N(C)[C@@H](CC(C)C)C(=O)N(C)[C@@H](CC(C)C)C(=O)N(C)[C@@H](C(C)C)C(=O)N1C [Compound I, [(R)-2′ (2-dimethylaminoethoxy)-Sar]^3 cyclosporin A]
ED (Endothelial damage) score, Mean [1]: 0.00 a.u. | GD (Glomerular damage) score, Mean [1]: 0.00 a.u. | TD (Tubular Damage) score, Mean [1]: 1.10±0.07 a.u. and 1.10## a.u. | TID (Tubulointersititial damage) score, Mean ([1]; p<0.01 vs. vehicle): 1.15±0.08 a.u. and 1.15##** a.u. | Total Histopathological Score, Mean ([1]; p<0.01 vs. vehicle): 2.15±0.08 a.u. and 2.15##** a.u. | total acute kidney injury pathology scoring of kidney tissue (FIG. 4A) ([2]; especially 3 and 9 mg/kg groups, gentamicin 100 mg/kg daily, Day 10, versus G2 vehicle): statistically significant impact in terms of generally reducing the severity of physical injury | KIM-1 biomarker level in plasma at endpoint (FIG. 7) [2, 4]: statistically relevant reduced levels | NGAL biomarker level in plasma at endpoint (FIG. 8) [2, 4]: statistically relevant reduced levels | severity of neutrophil infiltration (FIG. 4B) [2, 5]: markedly reduced | severity of tubular dilation (FIG. 4B) [2, 5]: markedly reduced | serum BUN level at endpoint (FIG. 6) [2, 6]: lower | serum creatinine level at endpoint (FIG. 5) [2, 6]: lower | rate of body weight gain over the 10-day study period (FIG. 1A) ([3]; Day 1-10, versus vehicle group): faster rate of body weight gain | overall body-weight change from baseline measurement on Day 1 (FIG. 1B) ([3]; Day 1 to Day 10, versus vehicle group): higher compared to the rats only treated with vehicle | serum blood urea nitrogen (BUN) level at endpoint (FIG. 2) ([3]; Day 10 serum): lower, compared to levels determined for the vehicle group; also recorded: comparable or similar levels as measured for the control group | serum creatinine level at endpoint (FIG. 3) ([3]; Day 10 serum): lower, compared to levels determined for the vehicle group; also recorded: comparable or similar levels as measured for the control group
